These results are taken from patent US12351571B2, “Substituted quinoxaline compounds as inhibitors of FGFR tyrosine kinases” (ARRAY BIOPHARMA INC., priority 2018, dated 2025).

One assay addresses human wild type FGFR3 (Homo sapiens (Human), UniProt P22607). Briefly: FGFR3 pERK Cell Assay. The format is cell-based. The settings on record: HEK-293 cells, 1 hour compound, 100 ng/ml human FGF-acidic; maximum concentration 5 μM. The procedure: (§1) HEK-293 cells transfected with dox-inducible human wild type FGFR3 (SEQ ID NO: 5) were plated in a collagen or poly-D-lysine coated 96 well flat bottom plates at 4×10^5 cells/well in complete DMEM medium containing 10% FBS and 1 μg/ml doxycycline and allowed to attach for 24 h at 37° C., 5% CO2. Cells were treated with compound using 1:3 serial dilutions with a maximum final concentration of 5 μM. Compound was incubated on cells for 1 hour at 37° C., 5% CO2. Cells were then stimulated with a final concentration of 100 ng/ml human FGF-acidic (R&D Systems Cat number 232-FA/CF) for 5 minutes at 37° C., 5% CO2. Medium was removed, and cells were lysed with lysis buffer containing phosphatase and protease inhibitors. Phospho ERK1/2 was measured using the Meso Scale Discovery sandwich assay (Meso Scale Discovery cat. no. K151DWD). The assay captures phospho ERK1/2 and detects with a sulfo-tagged total ERK1/2 antibody. The chemiluminescent signal was read on the Sector Imager Plate reader. 100 POC was determined using no test compounds and 0 POC was determined using a control compound. The POC values were fit to a 4-parameter logistic curve as a function of the concentration of the compound, and the IC50 value is the point where the curve crosses 50 POC.

For another assay, the target named is human wild type FGFR1 (Homo sapiens (Human), UniProt P11362). Kind of assay: FGFR1 pERK Cell Assay. It is filed as cell-based. As to conditions: HEK-293 cells, 1 hour compound, 100 ng/ml human FGF-acidic; maximum concentration 5 μM. How it is done: as §1, with “doxycycline(dox)-inducible” for “dox-inducible”, “FGFR1” for “FGFR3”, “1)” for “5)”, “Dulbecco's Modified Eagle Medium (DMEM)” for “DMEM medium”, “compound” for “compounds”

Assay [1] concerns the target recombinant human FGFR2 cytoplasmic domain (Homo sapiens (Human), UniProt P21802). Kind of assay: FGFR Enzyme Activity Assay (LanthaScreen TR-FRET), FGFR2. The settings on record: 15 μM ATP, 20 minute incubation; read-out: FGFR2 Enz FRET IC50. The format is biochemical. The procedure:
FGFR2 kinase activity was measured by the Invitrogen LanthaScreen™ Assay technology which directly measures the amount of substrate phosphorylation by TR-FRET using a flourescently-labeled peptide and Europium-labeled antibody. Briefly, 200 pM His-tagged recombinant human FGFR2 cytoplasmic domain (amino acids 403-822) (Life Technologies Cat. No. PR5332A) was incubated with 100 nM Alexa Fluor® 647-Poly-GT Peptide Substrate (Life Technologies Cat. No. PV5836) and 15 μM ATP along with test compound in a buffer consisting of 250 mM HEPES, 25 mM MgCl2, 0.05% TritonX-100, pH 7.5, and 2% DMSO. Compounds were typically prepared in a threefold serial dilution in DMSO and added to the assay to give the appropriate final concentration. After a 20 minute incubation at 22° C., an equal volume of 2 nM LanthaScreen® Eu-PY20 Antibody (Life Technologies Cat. No. PV5691) and 10 mM EDTA were added to quench the kinase reaction and start the detection reaction. After an additional 60 minute incubation at 22° C., the reaction was measured using a PerkinElmer EnVision multimode plate reader via TR-FRET dual wavelength detection, and the percent of control (POC) calculated using a ratiometric emission factor. 100 POC was determined using no test compounds and 0 POC was determined using no enzyme. The POC values were fit to a 4-parameter logistic curve as a function of the concentration of the compound, and the IC50 value is the point where the curve crosses 50 POC.
For orientation: Time-resolved FRET reads energy transfer from a long-lived donor to a nearby acceptor.

The next assay deals with FGFR1 (Homo sapiens (Human), UniProt P11362). Briefly: LC/MS FGFR1 kobs assay (covalent modification). It is filed as biochemical. As to conditions: 500 nM FGFR1, 3 μM compound. The procedure: The LC/MS FGFR1 and FGFR3 kobs assays were conducted as follows. 500 nM FGFR1 (Array BioPharma construct p1702; SEQ ID NO: 1, amino acids 458-765) or FGFR3 (Array BioPharma construct p1700; SEQ ID NO: 5, amino acids 449-759) were incubated with 3 μM compound in 25 mM HEPES (4-(2-hydroxyethyl)-1-piperazineethanesulfonic acid), pH 7.4, 5 mM MgCl2, 150 mM NaCl, 0.5 mM TCEP (tris(2-carboxyethyl) phosphine), and 2% DMSO in a total volume of 20 μL. At each time point, the reaction was quenched with 20 μL of 0.4% formic acid. The extent of protein modification by each compound was determined by LC/MS on an Agilent Technologies 6520 Q-TOF LC/MS. Protein signals were then automatically deconvoluted using Agilent Masshunter software. Deconvoluted mass signals were exported to Tibco Spotfire data analysis program for further processing and normalization.
Data analysis included five steps. First, the signals for the “DMSO Controls” were analyzed to determine the percent of signal associated with unmodified FGFR1 or FGFR3 at each time point. Next, the percent of the signal associated with the covalent modification was determined. Third, the average nonmodified “DMSO Control” signal was used to normalize the modified protein signals at each time point. The percent of unmodified protein was fit to an exponential decay model where A0 is the Percent Unmodified at the start of the reaction, and kobs is the observed rate constant over the time period.

Sequence of human wild type FGFR3 (P22607 23-806): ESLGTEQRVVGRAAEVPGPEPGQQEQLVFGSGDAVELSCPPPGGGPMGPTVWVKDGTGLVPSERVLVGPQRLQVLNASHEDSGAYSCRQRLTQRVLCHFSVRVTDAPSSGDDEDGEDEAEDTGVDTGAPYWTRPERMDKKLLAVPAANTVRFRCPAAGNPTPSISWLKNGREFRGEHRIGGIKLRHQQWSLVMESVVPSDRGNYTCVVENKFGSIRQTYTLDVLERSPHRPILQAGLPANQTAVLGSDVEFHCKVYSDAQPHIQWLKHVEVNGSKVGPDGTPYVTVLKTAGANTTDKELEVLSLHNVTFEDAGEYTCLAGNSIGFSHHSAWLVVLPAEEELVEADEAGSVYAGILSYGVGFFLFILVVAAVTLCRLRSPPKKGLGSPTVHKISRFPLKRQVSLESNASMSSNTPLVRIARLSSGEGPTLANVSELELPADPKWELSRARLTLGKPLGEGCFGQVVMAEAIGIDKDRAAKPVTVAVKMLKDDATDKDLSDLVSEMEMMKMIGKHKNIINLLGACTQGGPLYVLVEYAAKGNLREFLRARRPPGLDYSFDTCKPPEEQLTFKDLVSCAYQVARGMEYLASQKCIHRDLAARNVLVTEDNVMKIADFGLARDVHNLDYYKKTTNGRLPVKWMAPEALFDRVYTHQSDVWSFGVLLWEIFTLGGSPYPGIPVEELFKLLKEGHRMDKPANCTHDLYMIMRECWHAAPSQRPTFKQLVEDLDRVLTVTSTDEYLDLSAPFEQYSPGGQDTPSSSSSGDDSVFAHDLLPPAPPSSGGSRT
Sequence of recombinant human FGFR2 cytoplasmic domain (P21802 402-821): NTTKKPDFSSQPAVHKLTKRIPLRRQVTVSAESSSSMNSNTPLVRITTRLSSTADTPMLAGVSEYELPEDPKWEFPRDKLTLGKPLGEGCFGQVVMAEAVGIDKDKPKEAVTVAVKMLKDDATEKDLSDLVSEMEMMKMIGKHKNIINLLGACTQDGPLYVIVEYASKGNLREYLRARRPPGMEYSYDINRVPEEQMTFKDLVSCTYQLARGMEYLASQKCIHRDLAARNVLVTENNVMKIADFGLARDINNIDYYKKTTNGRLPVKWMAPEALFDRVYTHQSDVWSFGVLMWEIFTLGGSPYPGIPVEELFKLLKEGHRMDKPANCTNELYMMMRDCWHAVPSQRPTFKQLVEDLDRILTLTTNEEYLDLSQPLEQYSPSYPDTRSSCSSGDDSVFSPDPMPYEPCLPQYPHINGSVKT
Sequence of FGFR1 (P11362 458-765): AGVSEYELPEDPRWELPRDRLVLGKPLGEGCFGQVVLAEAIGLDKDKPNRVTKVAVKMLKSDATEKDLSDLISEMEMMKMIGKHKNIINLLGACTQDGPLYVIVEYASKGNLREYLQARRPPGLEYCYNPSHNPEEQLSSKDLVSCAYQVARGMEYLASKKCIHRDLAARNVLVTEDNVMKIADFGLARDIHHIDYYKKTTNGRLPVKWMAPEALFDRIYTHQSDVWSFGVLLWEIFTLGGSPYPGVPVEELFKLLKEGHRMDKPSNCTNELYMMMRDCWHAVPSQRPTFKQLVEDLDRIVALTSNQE
Sequence of human wild type FGFR1 (P11362 22-822): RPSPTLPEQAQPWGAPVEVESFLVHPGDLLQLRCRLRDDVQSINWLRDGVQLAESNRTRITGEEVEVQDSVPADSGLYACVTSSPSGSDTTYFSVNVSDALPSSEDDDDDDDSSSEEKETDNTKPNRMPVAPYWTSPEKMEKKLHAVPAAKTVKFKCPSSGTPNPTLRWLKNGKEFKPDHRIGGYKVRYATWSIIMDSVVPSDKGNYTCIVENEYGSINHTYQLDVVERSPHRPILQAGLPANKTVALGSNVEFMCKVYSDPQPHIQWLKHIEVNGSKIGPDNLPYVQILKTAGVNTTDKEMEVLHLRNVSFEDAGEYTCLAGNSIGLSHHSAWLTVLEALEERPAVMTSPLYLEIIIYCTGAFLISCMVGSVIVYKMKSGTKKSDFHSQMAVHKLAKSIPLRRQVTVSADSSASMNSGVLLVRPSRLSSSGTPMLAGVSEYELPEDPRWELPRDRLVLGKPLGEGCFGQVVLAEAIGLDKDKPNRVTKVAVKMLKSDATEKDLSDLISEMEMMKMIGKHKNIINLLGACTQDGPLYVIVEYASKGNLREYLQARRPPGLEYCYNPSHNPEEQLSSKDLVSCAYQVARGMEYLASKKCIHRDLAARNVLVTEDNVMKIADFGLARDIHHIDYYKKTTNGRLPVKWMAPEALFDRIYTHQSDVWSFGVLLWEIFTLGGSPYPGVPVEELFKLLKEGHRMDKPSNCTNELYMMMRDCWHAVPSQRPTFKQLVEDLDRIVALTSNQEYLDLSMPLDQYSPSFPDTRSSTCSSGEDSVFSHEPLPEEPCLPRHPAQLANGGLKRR

As usually defined, the IC50 is the concentration that gives 50% inhibition. On to `C=CC(=O)N1CC(C(=O)N2CCC(n3cc(-c4cnc5ccc(Nc6cc(OC)cc(OC)c6)cc5n4)cn3)CC2)C1` [Example 1, 1-(3-(4-(4-(7-((3,5-dimethoxyphenyl)amino)quinoxalin-2-yl)-1H-pyrazol-1-yl)piperidine-1-carbonyl)azetidin-1-yl)prop-2-en-1-one], for which the values for the IC50 (against human wild type FGFR3; against human wild type FGFR1; in assay [1]) were 44 nM, 507 nM and 11 nM, respectively. Besides, the “FGFR1 Enz kobs” value at FGFR1 was 0.00127 min⁻¹.
As for `C=CC(=O)N1CC[C@@H](C(=O)N2CCC(n3cc(-c4cnc5ccc(Nc6cc(OC)cc(OC)c6)cc5n4)cn3)CC2)C1` [Example 2, (R)-1-(3-(4-(4-(7-((3,5-dimethoxyphenyl)amino)-quinoxalin-2-yl)-1H-pyrazol-1-yl)piperidine-1-carbonyl)pyrrolidin-1-yl)-prop-2-en-1-one], the IC50 was found to be 207 nM on human wild type FGFR3, 852 nM at human wild type FGFR1 and 11 nM in assay [1]. The “FGFR1 Enz kobs” value on FGFR1 came out at 0.00038 min⁻¹.
For `C=CC(=O)N1CCC(C(=O)N2CCC(n3cc(-c4cnc5ccc(Nc6cc(OC)cc(OC)c6)cc5n4)cn3)CC2)CC1` [Example 3, 1-(4-(4-(4-(7-((3,5-dimethoxyphenyl)amino)-quinoxalin-2-yl)-1H-pyrazol-1-yl)piperidine-1-carbonyl)piperidin-1-yl)prop-2-en-1-one], the IC50 worked out at 135 nM against human wild type FGFR3, 350 nM on human wild type FGFR1 and 12 nM in assay [1].
For the compound `C=CC(=O)N1CC(F)(C(=O)N2CCC(n3cc(-c4cnc5ccc(Nc6cc(OC)cc(OC)c6)cc5n4)cn3)CC2)C1` [Example 4, 1-(3-(4-(4-(7-((3,5-dimethoxyphenyl)amino)-quinoxalin-2-yl)-1H-pyrazol-1-yl)piperidine-1-carbonyl)-3-fluoro-azetidin-1-yl)prop-2-en-1-one], the IC50 is 20 nM at human wild type FGFR3, 170 nM at human wild type FGFR1 and 40 nM in assay [1]. Further, the “FGFR1 Enz kobs” value at FGFR1 came out at 0.00632 min⁻¹.
With `C=CC(=O)N1CC(C(=O)N2CCN(c3ccc(-c4cnc5ccc(Nc6cc(OC)cc(OC)c6)cc5n4)cn3)CC2)C1` [Example 5, 1-(3-(4-(5-(7-((3,5-dimethoxyphenyl)amino)-quinoxalin-2-yl)pyridin-2-yl)piperazine-1-carbonyl)azetidin-1-yl)-prop-2-en-1-one], the IC50 at human wild type FGFR3 is 317 nM; against human wild type FGFR1, 2690 nM; in assay [1] it was 365 nM. In addition, the “FGFR1 Enz kobs” value at FGFR1 was 0.0011 min⁻¹.
In the case of `COc1cc(Nc2ccc3ncc(-c4ccc(N5CCN(C(=O)C6CN(C(=O)/C=C/CN(C)C)C6)CC5)nc4)nc3c2)cc(OC)c1` [Example 6, (E)-1-(3-(4-(5-(7-((3,5-dimethoxyphenyl)amino)-quinoxalin-2-yl)pyridin-2-yl)piperazine-1-carbonyl)azetidin-1-yl)-4-(dimethylamino)but-2-en-1-one], the IC50 was 228 nM against human wild type FGFR3, not below 5000 nM at human wild type FGFR1 and 124 nM in assay [1]. Further, on FGFR1, the “FGFR1 Enz kobs” value was 0.00259 min⁻¹.
Consider `COc1cc(Nc2ccc3ncc(-c4ccc(N5CCN(C(=O)C6(F)CN(C(=O)/C=C/CN(C)C)C6)CC5)nc4)nc3c2)cc(OC)c1` [Example 7, (E)-1-(3-(4-(5-(7-((3,5-dimethoxyphenyl)amino)-quinoxalin-2-yl)pyridin-2-yl)piperazine-1-carbonyl)-3-fluoroazetidin-1-yl)-4-(dimethylamino)but-2-en-1-one], for which the IC50 was 77 nM against human wild type FGFR3, 1530 nM against human wild type FGFR1 and 227 nM in assay [1]. Moreover, the “FGFR1 Enz kobs” value on FGFR1 came out at 0.00659 min⁻¹.
For the compound `C=CC(=O)N1CC(F)(C(=O)N2CCN(c3ccc(-c4cnc5ccc(Nc6cc(OC)cc(OC)c6)cc5n4)cn3)CC2)C1` [Example 8, 1-(3-(4-(5-(7-((3,5-dimethoxyphenyl)amino)-quinoxalin-2-yl)pyridin-2-yl)piperazine-1-carbonyl)-3-fluoroazetidin-1-yl)-prop-2-en-1-one], the IC50 against human wild type FGFR3 came to 154 nM; against human wild type FGFR1, 1140 nM; in assay [1], 744 nM. The “FGFR1 Enz kobs” value on FGFR1 is 0.00384 min⁻¹.
`COc1cc(Nc2ccc3ncc(-c4cnn(C5CCN(C(=O)C6CN(C(=O)/C=C/CN(C)C)C6)CC5)c4)nc3c2)cc(OC)c1` [Example 9, (E)-1-(3-(4-(4-(7-((3,5-dimethoxyphenyl)amino)-quinoxalin-2-yl)-1H-pyrazol-1-yl)piperidine-1-carbonyl)azetidin-1-yl)-4-(dimethylamino)but-2-en-1-one]: the half-maximal inhibitory concentration (IC50) stood at 184 nM at human wild type FGFR3, 2230 nM against human wild type FGFR1 and 10 nM in assay [1]. For the same compound, the “FGFR1 Enz kobs” value on FGFR1 was determined as 0.00278 min⁻¹.
In the case of `COc1cc(Nc2ccc3ncc(-c4cnn(C5CCN(C(=O)C6(F)CN(C(=O)/C=C/CN(C)C)C6)CC5)c4)nc3c2)cc(OC)c1` [Example 10, (E)-1-(3-(4-(4-(7-((3,5-dimethoxyphenyl)amino)-quinoxalin-2-yl)-1H-pyrazol-1-yl)piperidine-1-carbonyl)-3-fluoro-azetidin-1-yl)-4-(dimethylamino)but-2-en-1-one], the IC50 was 14 nM at human wild type FGFR3, 134 nM on human wild type FGFR1 and 11 nM in assay [1]. Besides, on FGFR1, the “FGFR1 Enz kobs” value was 0.01569 min⁻¹.
Turning to `COc1cc(Nc2ccc3ncc(-c4ccc(N5CCN(C(=O)C6(F)CN(C(=O)/C=C/CN(C)C)C6)CC5)nc4C)nc3c2)cc(OC)c1` [Example 13, (E)-1-(3-(4-(5-(7-((3,5-dimethoxyphenyl)amino)-quinoxalin-2-yl)-6-methylpyridin-2-yl)-piperazine-1-carbonyl)-3-fluoroazetidin-1-yl)-4-(dimethylamino)but-2-en-1-one], the IC50 in assay [1] came to 1910 nM. Besides, the “FGFR1 Enz kobs” value at FGFR1 came out at 0.00293 min⁻¹.
`C=CC(=O)N1CC(C(=O)N2CCN(c3cccc(-c4cnc5ccc(Nc6cc(OC)cc(OC)c6)cc5n4)c3)CC2)C1` [Example 25, 1-(3-(4-(3-(7-((3,5-dimethoxyphenyl)amino)-quinoxalin-2-yl)phenyl)-piperazine-1-carbonyl)-azetidin-1-yl)prop-2-en-1-one]: in assay [1], the IC50 came out at 1740 nM. Further, the “FGFR1 Enz kobs” value at FGFR1 amounted to 0.00404 min⁻¹.
